Assay results reported in article PMC8341910, “Structural and biophysical insights into the mode of covalent binding of rationally designed potent BMX inhibitors” (RSC Chemical Biology, 2020).
“And” between values parts separate entries of the source, which are not always exact repeats. Equal entries are not always repeated. Where two headings read alike, the source gives them in different places.

Tests used:
PC3 = assay: Multi cell line growth assay (CellTiter-Glo, 72 h); type: cell-based, human; conditions: Homo sapiens, PC-3, Prostate, ND = no growth inhibition observed
[1] = biological target: T1, wild-type BMX in PC3 cells (Homo sapiens, UniProt P51813); assay: BMX degradation assay in PC3 cells (Western blot); type: cell-based; conditions: 10 μM; 24 h and 72 h; band intensity normalized to α-Tubulin
T1 construct: endogenous in cells; host or cells: PC3 prostate cancer cells (wild-type, untransfected)
Description: The cell proliferation depends on BMX kinase activity that was used to monitor the cellular activity of the compounds (IC50). […].  Fig. 5 (a) Intracellular target engagement in HEK293 cells transiently transfected with BMX expressing NanoLuc®-BMX fusion vector with Promega's NanoBRET™ TE Intracellular Kinase Assay. […] Band intensity was measured using ImageJ and normalized with α-Tubulin band intensity. […] Data are mean ± standard deviation obtained from at least three independent measurements (n = 3). See ESI ^† for additional data and analysis. […] | page 12: […]
degradation assay. Protein band intensity normalized with α-Tubulin band intensity and quantified using ImageJ. Data was obtained from at least three independent measurements […]
concentration against PC3 cells, plated on 6-well plates, a day after attachment. DMSO was used as a control vehicle. At 24 h and 72 h of incubation, cells were washed in 1X PBS and lysed in 100 µL RIPA Buffer (in house) supplemented with EDTA-free Protease Inhibitor Cocktail (Merk) and DNase I (Merk). The lysis procedure was performed by re-suspending cells continuously, followed by a incubation of 30 min on ice. BMX antibody (Abcam) and tubulin antibody (Cell signaling Technology) were used in the Western blot. Band intensity […]

U-87MG = assay: Multi cell line growth assay (CellTiter-Glo, 72 h); type: cell-based; conditions: Homo sapiens, Brain, ND = no growth inhibition observed
[2] = biological target: NanoLuc®-BMX fusion vector in HEK293 cells (Homo sapiens, UniProt P51813); assay: NanoBRET TE intracellular kinase assay; type: cell-based; conditions: HEK293 transiently transfected with BMX; 1 h; duplicate, mean ± S.D.; read-out: intracellular target engagement IC50
Description: Target Engagement Intracellular Kinase Assay:
In-cell target engagement was performed at the Reaction Biology Corporation (USA) using the NanoBRETTM technology. Very briefly, HEK296 cells, purchased from ATCC, were
with the reference compound Dasatinib, for 1 hour of incubation. Compounds were diluted 10 times with 3-fold dilution, starting at 1 µM. Curve fits were performed only when % NanoBret
determined using the GraphPad Prism 8 (USA).

CAOV3 = assay: Multi cell line growth assay (CellTiter-Glo, 72 h); type: cell-based, human; conditions: Homo sapiens, Caov-3, Ovary, ND = no growth inhibition observed
PC3 cells = assay: PC-3 cell growth assay (CellTiter-Glo, 96 h); type: cell-based; conditions: Homo sapiens, PC-3, 96 h, read-out: GI50 PC3
Description: (§1) GI50 values are reported in μM and are the mean of three individual experiments performed in triplicate. N.d., non-determined, no growth inhibition observed within the concentrations tested.
(§2) Cellular activity Assay: LNCaP and PC-3 Cell Growth Assay
(§3) Cells were seeded in white, opaque-bottom 96-well plates at 5000 cells/well (LNCaP) or 2000 cells/well (PC-3) in a total volume of 100 µL of culture media.
(§4) fold) in 100 µL media were added to the cells 24 hours later. After 96 hours incubation cellular viability was assessed by CellTiter-Glo® (Promega) according to the manufacturer’s instructions. The values were normalized to vehicle and IC50 was calculated using GraphPad

[3] = Dynamic light scattering, colloidal aggregation; type: physicochemical; conditions: deionized and filtered water (0.1% DMSO), kinetic from dmso stock, measured at 10 µM, 1 µM and 100 nM, 25 °C, read-out: DLS maximum soluble concentration at which no aggregates are observed
Description: In addition, we measured particle sizes by using dynamic light scattering (DLS).
DLS is measured at 10 µM, 1µM and 100 nM. The maximum soluble
concentration – at which no aggregates are observed - is indicated and the colour code indicates
Dynamic Light Scattering:
Dynamic light scattering (Zetasizer Nano S, Malvern, UK) was used to determine compound colloidal aggregation. […] A 10 mM stock solution of
test compounds was prepared in DMSO, following dilution to deionized and filtered water to
obtain an analyte solution of 10 μM (0.1% DMSO). Colloidal aggregation was measured
through sequential dilutions at 10 μM, 1 μM and 0.1 μM.

MDA-MB-231 = assay: Multi cell line growth assay (CellTiter-Glo, 72 h); type: cell-based; conditions: Homo sapiens, Breast, ND = no growth inhibition observed
DU145 = assay: Multi cell line growth assay (CellTiter-Glo, 72 h); type: cell-based; conditions: Homo sapiens, DU-145, Prostate, ND = no growth inhibition observed
22 RV1 = assay: Multi cell line growth assay (CellTiter-Glo, 72 h); type: cell-based, human; conditions: Homo sapiens, 22Rv1, Prostate, ND = no growth inhibition observed
Jurkat = assay: Multi cell line growth assay (CellTiter-Glo, 72 h); type: cell-based, human; conditions: Homo sapiens, Jurkat, Blood, ND = no growth inhibition observed
in vitro = conditions: PAMPA
Description: (§5) For assessment of drug permeability, we relied on parallel artificial membrane permeability assay (PAMPA) performed at Pion Inc. with the PAMPA Evolution™ instrument (Table S1, ESI ^†).
(§6) methods (ESOL model1 and Ali et al.2) PAMPA: Pe is effective permeability (x10-6 cm/sec)
(§7) measured directly from assay at pH 6.8 and %R is membrane retention.
(§8) as the average of quadruplicates. Und label refers to compounds with extremely low solubility
(§9) for which UV limits were below the detection limits therefore considered undetected.
(§10) Compounds were labelled as high permeability (green), medium permeability (orange) or low
(§11) Artificial Membrane Permeability (PAMPA):
(§12) The PAMPA Evolution™ instrument was used to determine permeability, at Pion Inc. In
(§13) PAMPA, a sandwich is formed such that each composite well is divided into two chambers,
(§14) measured at pH 6.8 in the donor compartment using low-binding, low UV Prisma buffer. The
(§15) drug-free acceptor compartment was filled with acceptor sink buffer containing a scavenger at
(§16) the start of the test. The proprietary scavenger mimics serum proteins and blood circulation,
(§17) thus creating sink conditions. Aqueous solutions of studied compounds are prepared by diluting
(§18) and thoroughly mixing 3 µL of DMSO stock in 600 µL of Prisma HT buffer. Final
(§19) concentration of organic solvent (DMSO) in aqueous buffer is ≤ 0.5% (v/v). The reference
(§20) solution is identical to the donor at time zero, so that any surface adsorption effects from the
(§21) plastic ware is compensated. The PAMPA sandwich was assembled and allowed to incubate
(§22) for ~15 hours. The solutions in the donor compartment were un-stirred within duration of the
(§23) experiment. Thus, the thickness of the aqueous boundary layer expected to be about 1000 µm.
(§24) The sandwich was then separated, and both the donor and receiver compartments were assayed
(§25) for the amount of drug present by comparison with the UV spectrum obtained from reference

BMX = biological target: T2, BMX (Homo sapiens, UniProt P51813); assay: BMX biochemical activity assay (HTRF, phosphorylation of a biotinylated peptide)
T2 sequence (P51813 1-675): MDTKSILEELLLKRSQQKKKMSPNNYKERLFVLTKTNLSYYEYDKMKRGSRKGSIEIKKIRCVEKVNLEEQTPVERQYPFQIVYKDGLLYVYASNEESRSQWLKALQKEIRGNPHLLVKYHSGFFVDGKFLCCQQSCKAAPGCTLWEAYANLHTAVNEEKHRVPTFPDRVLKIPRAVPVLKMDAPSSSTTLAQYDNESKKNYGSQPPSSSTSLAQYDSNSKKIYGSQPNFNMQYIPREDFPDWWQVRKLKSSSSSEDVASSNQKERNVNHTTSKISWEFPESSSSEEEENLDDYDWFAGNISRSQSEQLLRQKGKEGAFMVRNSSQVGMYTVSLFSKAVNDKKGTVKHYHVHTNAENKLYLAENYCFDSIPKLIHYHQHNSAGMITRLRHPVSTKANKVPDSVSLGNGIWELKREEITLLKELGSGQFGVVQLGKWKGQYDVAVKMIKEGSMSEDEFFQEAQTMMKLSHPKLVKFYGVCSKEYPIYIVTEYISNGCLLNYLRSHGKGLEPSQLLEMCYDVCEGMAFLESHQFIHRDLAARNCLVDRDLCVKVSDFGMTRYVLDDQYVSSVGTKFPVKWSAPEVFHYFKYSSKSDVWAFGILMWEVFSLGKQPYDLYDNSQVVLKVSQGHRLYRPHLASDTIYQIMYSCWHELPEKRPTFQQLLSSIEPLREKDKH

[4] = biological target: T3, recombinant human BMX protein (hBMX) (Homo sapiens, UniProt P51813); assay: Differential scanning fluorimetry (DSF); type: binding; conditions: 100 μM compound
T3 construct: Crystallization, data collection, and structure determination of BMX catalytic domain in; made in house; host or cells: Sf-9 insect cells

LNCaP cells = assay: LNCaP cell growth assay (CellTiter-Glo, 96 h); type: cell-based; conditions: Homo sapiens, read-out: GI50 LNCaP
Description: as §1, §2, §3, §4

LNCaP = assay: Multi cell line growth assay (CellTiter-Glo, 72 h); type: cell-based, human; conditions: Homo sapiens, LNCaP, Prostate, ND = no growth inhibition observed within the concentrations tested
DAUDI = assay: Multi cell line growth assay (CellTiter-Glo, 72 h); type: cell-based, human; conditions: Homo sapiens, Daudi, Lymphoid, ND = no growth inhibition observed
His6-hsBMX = biological target: T4, His6-hsBMX (Homo sapiens, UniProt P51813); assay: Surface plasmon resonance (SPR); type: binding; conditions: from kinetic constants
T4 construct: Crystallization, data collection, and structure determination of BMX catalytic domain in; made in house; host or cells: Sf-9 insect cells
Description: response upon compound injection (t=0s), or upon washing (t=220s), on immobilized His6-
hsBMX surfaces. Compound concentrations injected on already saturated surfaces were not
included in the 1:1 Langmuir fitting model. X-axis: time (s); y-axis: response (arbitrary units).
Inset plots [x-axis: compound concentration (M); y-axis: response (arbitrary units)] show the
steady-state affinity (KDss) fit for the interactions wherein equilibrium was reached.
Surface Plasmon Resonance:
The kinetic and affinity parameters of protein-compound interaction were evaluated by SPR.
Experiments were carried out in a Biacore 4000 instrument (Biacore AB, GE Healthcare Life
Sciences, Uppsala, Sweden) at 25 °C. His6-BMX protein was diluted to 10 µg/mL in sodium
acetate pH 5.5, in the presence of 5 µM staurosporine and immobilized onto CM5 (Series S)
sensor chips, using the standard amine coupling procedure. Prior to immobilization, the
carboxymethylated surface of the chip was activated with 400 mM 1-ethyl-3-(3-
dimethylaminopropyl)-carbodiimide and 100 mM N-hydroxysuccinimide for 10 min. HBS-N
(10 mM HEPES pH7.4, 150mM NaCl) was used as the background buffer. Protein was coupled
to the surface after 2 to 10 min injection times, at a flow rate of 10 µL/min, in order to reach
1500 to 3500 response units (RU). The remaining activated carboxymethylated groups were
blocked with a 7 min injection of 1 M ethanolamine pH 8.5. Compounds were pre-diluted in
DMSO to 50x the desired highest tested concentration and diluted afterwards in running buffer
(20 mM HEPES pH 7.4, 150 mM NaCl, 1 mM DTT, 0.1 mM EGTA, 0.05 % (v/v) TWEEN-
20, 5 mM MgCl2) in order to reach 2% of DMSO concentration. A DMSO solvent correction
(1% - 3%) was performed to account for variations in bulk signal and to achieve high-quality
data. Each compound was injected over immobilized His6-BMX for 220 s (30 µL min-1;
association phase) followed by 600 to 2000 s of buffer flow (dissociation phase) at a maximum
five times in 2-fold dilution series. All sensorgrams were processed by first subtracting the
binding response recorded from the control surface (reference spot), followed by subtracting
the buffer blank injection from the reaction spot. All datasets were fit to a simple 1:1 Langmuir
interaction model with the provided Biacore 4000 Evaluation software, to determine kinetic rate constants (kon, koff) or steady-state affinity (KDss).

RS4(11) = assay: Multi cell line growth assay (CellTiter-Glo, 72 h); type: cell-based, human; conditions: Homo sapiens, RS4-11, Lung (so in the source), ND = no growth inhibition observed
[5] = pH 6.8
Description: as §5, §6, §7, §8, §9, §10, §11, §12, §13, §14, §15, §16, §17, §18, §19, §20, §21, §22, §23, §24, §25

Kasumi = assay: Multi cell line growth assay (CellTiter-Glo, 72 h); type: cell-based, human; conditions: Homo sapiens, Blood, ND = no growth inhibition observed
SK-N-MC = assay: Multi cell line growth assay (CellTiter-Glo, 72 h); type: cell-based, human; conditions: Homo sapiens, SK-N-MC, Brain, ND = no growth inhibition observed

C=CC(=O)Nc1cc(-n2c(=O)ccc3cnc4ccc(-c5ccc(NS(C)(=O)=O)cc5)cc4c32)ccc1C [BMX-IN-1, reference compound]
GI50 (PC3): 11000 ± 1130 nM | degradation of BMX protein [1]: induce degradation of wild-type BMX in PC3 cells | GI50 (U-87MG): 5330 ± 190 nM | IC50 [2]: 495 nM | GI50 (CAOV3): 7680 ± 130 nM | GI50 (PC3 cells): 11500 ± 2200 nM | solubility [3]: ≥ 10 µM | GI50 (MDA-MB-231): 23600 ± 480 nM | GI50 (DU145): 17700 nM | GI50 (22 RV1): 2070 ± 60 nM | GI50 (Jurkat): 5990 nM | Papp (in vitro; pH 6.8, PAMPA permeability): 8.9 ×10⁻⁶ cm/s | Papp (in vitro; pH 6.8, PAMPA/Pe effective permeability): 8.9 ± 0.8 ×10⁻⁶ cm/s | IC50 (BMX; Experiment 1 of Fig. S3, control JS9A (in-house BMX-IN-1), read-out: BMX IC50): 360 ± 24 nM | IC50 (BMX; Experiment 2 of Fig. S3, control commercial BMX-IN-1, read-out: BMX IC50): 55 ± 35 nM | IC50 (BMX; Experiment 3 of Fig. S3, control commercial BMX-IN-1, read-out: BMX IC50): 230 ± 34.5 nM | IC50 (BMX; Experiment 4 of Fig. S3 = Fig. 1b, duplicate, mean ± S.D., read-out: BMX inhibition IC50): 50.2 nM and 50 nM | ΔTm at 100 µM ([4]; versus apo-BMX, read-out: ΔTm): 8.04 ± 0.32 °C | Average Tm of BMX with compound ([4]; apo-BMX Tm 51.8-52.2 °C): 60.17±0.32 °C | GI50 (LNCaP cells): 1700 nM | GI50 (LNCaP): 1810 ± 50 nM | GI50 (DAUDI): 1680 ± 70 nM | Kd (His6-hsBMX): 69 nM | GI50 (RS4(11)): 1180 ± 60 nM | PAMPA/%R membrane retention [5]: 55±8% | GI50 (Kasumi): 3130 ± 60 nM | GI50 (SK-N-MC): 2360 nM
